How the values were obtained:
[1] = molecular target: T1, TBK1 (Homo sapiens, UniProt Q9UHD2); assay: TBK biochemical assay; details: 10 point 1:4 dose response, 30 uM top concentration, 90 min at 25° C., LabChip EZ Reader II; read-out: TBK1_IC50
T1 sequence (Q9UHD2 1-729): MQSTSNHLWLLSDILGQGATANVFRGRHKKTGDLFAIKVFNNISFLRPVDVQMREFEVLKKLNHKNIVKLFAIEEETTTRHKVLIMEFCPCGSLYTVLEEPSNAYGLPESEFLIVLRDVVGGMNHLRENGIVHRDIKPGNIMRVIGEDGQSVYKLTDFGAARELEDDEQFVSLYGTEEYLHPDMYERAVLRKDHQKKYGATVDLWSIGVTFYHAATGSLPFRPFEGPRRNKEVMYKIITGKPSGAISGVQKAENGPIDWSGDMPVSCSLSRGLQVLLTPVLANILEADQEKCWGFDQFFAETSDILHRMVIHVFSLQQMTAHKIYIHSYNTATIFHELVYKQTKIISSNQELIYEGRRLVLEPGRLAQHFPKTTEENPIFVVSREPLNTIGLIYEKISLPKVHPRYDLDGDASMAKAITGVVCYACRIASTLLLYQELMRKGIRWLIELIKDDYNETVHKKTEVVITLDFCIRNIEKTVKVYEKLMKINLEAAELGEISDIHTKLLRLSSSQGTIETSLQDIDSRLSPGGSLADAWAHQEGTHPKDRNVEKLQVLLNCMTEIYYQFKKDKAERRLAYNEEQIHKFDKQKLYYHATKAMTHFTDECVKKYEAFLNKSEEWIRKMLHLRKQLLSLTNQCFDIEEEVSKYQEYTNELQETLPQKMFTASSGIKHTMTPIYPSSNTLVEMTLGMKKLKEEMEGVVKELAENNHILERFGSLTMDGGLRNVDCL
Summary of the method: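 Read-out was a Caliper LabChip mobility-shift assay, run after a 90-min, 25 °C reaction of TBK1 with substrate and compounds, quenched with stop buffer. Control wells received staurosporine at 10 uM final.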

[2] = molecular target: T2, IKKε (Homo sapiens, UniProt Q14164); assay: IKKε biochemical assay; details: 10 point 1:4 dose response, 30 uM top concentration, 90 min at 25° C., LabChip EZ Reader II; read-out: IKKε_IC50
T2 sequence (Q14164 1-716): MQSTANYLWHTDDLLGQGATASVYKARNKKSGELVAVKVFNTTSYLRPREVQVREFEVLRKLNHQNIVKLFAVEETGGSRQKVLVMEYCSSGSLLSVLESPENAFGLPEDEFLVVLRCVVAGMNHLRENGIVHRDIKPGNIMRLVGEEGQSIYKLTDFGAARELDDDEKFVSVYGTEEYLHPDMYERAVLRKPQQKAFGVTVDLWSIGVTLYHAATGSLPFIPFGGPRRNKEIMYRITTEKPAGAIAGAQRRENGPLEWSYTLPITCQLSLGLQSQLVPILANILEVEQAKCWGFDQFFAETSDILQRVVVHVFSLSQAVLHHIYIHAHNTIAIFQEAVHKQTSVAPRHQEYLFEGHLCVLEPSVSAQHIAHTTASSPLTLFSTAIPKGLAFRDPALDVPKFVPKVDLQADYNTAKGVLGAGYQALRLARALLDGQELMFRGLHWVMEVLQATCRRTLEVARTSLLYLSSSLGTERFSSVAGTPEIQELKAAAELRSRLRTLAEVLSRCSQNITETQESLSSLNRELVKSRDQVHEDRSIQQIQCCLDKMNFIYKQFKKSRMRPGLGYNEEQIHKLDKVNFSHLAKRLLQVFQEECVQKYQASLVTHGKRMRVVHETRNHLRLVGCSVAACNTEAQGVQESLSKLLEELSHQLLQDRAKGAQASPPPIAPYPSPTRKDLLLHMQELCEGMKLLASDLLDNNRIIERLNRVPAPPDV
Summary of the method: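 Mobility-shift LabChip read-out followed a 90 min, 25° C. reaction of IKKε with substrate and test compound, with DMSO held at 1% final. Reactions were ended with stop buffer. Wells with 10 uM final staurosporine defined complete inhibition, and DMSO-only wells the uninhibited level.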

SMILES	IC50 [1]	IC50 [2]
COc1nc(Nc2nccc(-c3ccc(O[C@@H]4CCN(C(=O)[C@H](C)O)C[C@@H]4F)c(C#N)c3)n2)ccc1N1CCN(C2COC2)CC1 [Example 118, 2-[(3S,4R)-3-Fluoro-1-((S)-2-hydroxy-propionyl)-piperidin-4-yloxy]-5-{2-[6-methoxy-5-(4-oxetan-3-yl-piperazin-1-yl)-pyridin-2-ylamino]-pyrimidin-4-yl}-benzonitrile]	< 0.1 µM	< 0.1 µM
COc1nc(Nc2nccc(-c3ccc(OC4CCNCC4(F)F)c(C#N)c3)n2)ccc1N1CCN(C2COC2)CC1 (stereo not drawn) [Example 119]	< 0.1 µM	< 0.1 µM
COc1nc(Nc2nccc(-c3ccc(OC4CCNCC4(F)F)c(C#N)c3)n2)ccc1N1CCN(C2COC2)C[C@H]1C (stereo partly drawn) [Example 129, 2-(3,3-Difluoro-piperidin-4-yloxy)-5-{2-[6-methoxy-5-((R)-2-methyl-4-oxetan-3-yl-piperazin-1-yl)-pyridin-2-ylamino]-pyrimidin-4-yl}-benzonitrile]	< 0.1 µM	< 0.1 µM
COc1nc(Nc2nccc(-c3ccc(OC4CCN(C(=O)[C@@H](O)CO)CC4(F)F)c(C#N)c3)n2)ccc1N1CCN(C2COC2)C[C@H]1C (stereo partly drawn) [Example 133, 2-[1-((S)-2,3-Dihydroxy-propionyl)-3,3-difluoro-piperidin-4-yloxy]-5-{2-[6-methoxy-5-((R)-2-methyl-4-oxetan-3-yl-piperazin-1-yl)-pyridin-2-ylamino]-pyrimidin-4-yl}-benzonitrile]	< 0.1 µM	< 0.1 µM
N#Cc1cc(-c2ccnc(Nc3ccc(N4CCN(C5CC5)CC4)cc3)n2)ccc1OC1CCOCC1 [Example 134, 5-{2-[4-(4-Cyclopropyl-piperazin-1-yl)-phenylamino]-pyrimidin-4-yl}-2-(tetrahydro-pyran-4-yloxy)-benzonitrile]	< 0.1 µM	< 0.1 µM
N#Cc1cc(-c2ccnc(Nc3ccc(N4CCN(C5COC5)CC4)cc3)n2)ccc1OC1CCOCC1 [Example 135, 2-(oxan-4-yloxy)-5-[2-([4-[4-(oxetan-3-yl)piperazin-1-yl]phenyl]amino)pyrimidin-4-yl]benzonitrile]	< 0.1 µM	< 0.1 µM
N#Cc1cc(-c2ccnc(Nc3ccc(N4CCN(C5COC5)CC4)cc3)n2)ccc1OC1CCNCC1(F)F (stereo not drawn) [Example 136, 2-[(3,3-difluoropiperidin-4-yl)oxy]-5-[2-([4-[4-(oxetan-3-yl)piperazin-1-yl]phenyl]amino)pyrimidin-4-yl]benzonitrile]	< 0.1 µM	< 0.1 µM

Second part, the molecule after the results:

IC50 [1]	IC50 [2]	SMILES
< 0.1 µM	< 0.1 µM	COc1nc(Nc2nccc(-c3ccc(O[C@H]4CCN(C(=O)[C@H](C)O)CC4(F)F)c(C#N)c3)n2)ccc1N1CCN(C2COC2)CC1 [Example 120, 2-([3,3-difluoro-1-[(2S)-2-hydroxypropanoyl]piperidin-4-yl]oxy)-5-[2-([6-methoxy-5-[4-(oxetan-3-yl)piperazin-1-yl]pyridin-2-yl]amino)pyrimidin-4-yl]benzonitrile]
< 0.1 µM	< 0.1 µM	COc1nc(Nc2nccc(-c3ccc(O[C@@H]4CCN(C(=O)[C@H](C)O)CC4(F)F)c(C#N)c3)n2)ccc1N1CCN(C2COC2)CC1 [Example 122, 2-[[(4R)-3,3-difluoro-1-[(2S)-2-hydroxypropanoyl]piperidin-4-yl]oxy]-5-[2-([6-methoxy-5-[4-(oxetan-3-yl)piperazin-1-yl]pyridin-2-yl]amino)pyrimidin-4-yl]benzonitrile]
< 0.1 µM	< 0.1 µM	COc1nc(Nc2nccc(-c3ccc(OC4CCNCC4(F)F)c(C#N)c3)n2)ccc1N1CCN(C2COC2)[C@@H](C)C1 (stereo partly drawn) [Example 123, 2-(3,3-Difluoro-piperidin-4-yloxy)-5-{2-[6-methoxy-5-((S)-3-methyl-4-oxetan-3-yl-piperazin-1-yl)-pyridin-2-ylamino]-pyrimidin-4-yl}-benzonitrile]
< 0.1 µM	< 0.1 µM	COc1nc(Nc2nccc(-c3ccc(OC4CCNCC4(F)F)c(C#N)c3)n2)ccc1N1CCN(C2COC2)[C@H](C)C1 (stereo partly drawn) [Example 124, 2-(3,3-Difluoro-piperidin-4-yloxy)-5-{2-[6-methoxy-5-((R)-3-methyl-4-oxetan-3-yl-piperazin-1-yl)-pyridin-2-ylamino]-pyrimidin-4-yl}-benzonitrile]
< 0.1 µM	< 0.1 µM	COc1nc(Nc2nccc(-c3ccc(OC4CCN(C(=O)[C@@H](C)O)CC4(F)F)c(C#N)c3)n2)ccc1N1CCN(C2COC2)[C@@H](C)C1 (stereo partly drawn) [Example 125, 2-[3,3-Difluoro-1-((R)-2-hydroxy-propionyl)-piperidin-4-yloxy]-5-{2-[6-methoxy-5-((S)-3-methyl-4-oxetan-3-yl-piperazin-1-yl)-pyridin-2-ylamino]-pyrimidin-4-yl}-benzonitrile]
< 0.1 µM	< 0.1 µM	COc1nc(Nc2nccc(-c3ccc(OC4CCN(C(=O)[C@@H](C)O)CC4(F)F)c(C#N)c3)n2)ccc1N1CCN(C2COC2)[C@H](C)C1 (stereo partly drawn) [Example 126, 2-[3,3-Difluoro-1-((R)-2-hydroxy-propionyl)-piperidin-4-yloxy]-5-{2-[6-methoxy-5-((R)-3-methyl-4-oxetan-3-yl-piperazin-1-yl)-pyridin-2-ylamino]-pyrimidin-4-yl}-benzonitrile]
< 0.1 µM	< 0.1 µM	COc1nc(Nc2nccc(-c3ccc(OC4CCN(C(=O)[C@H](C)O)CC4(F)F)c(C#N)c3)n2)ccc1N1CCN(C2COC2)[C@@H](C)C1 (stereo partly drawn) [Example 127, 2-[3,3-Difluoro-1-((S)-2-hydroxy-propionyl)-piperidin-4-yloxy]-5-{2-[6-methoxy-5-((S)-3-methyl-4-oxetan-3-yl-piperazin-1-yl)-pyridin-2-ylamino]-pyrimidin-4-yl}-benzonitrile]
< 0.1 µM	< 0.1 µM	COc1nc(Nc2nccc(-c3ccc(OC4CCN(C(=O)[C@H](C)O)CC4(F)F)c(C#N)c3)n2)ccc1N1CCN(C2COC2)[C@H](C)C1 (stereo partly drawn) [Example 128, 2-[3,3-Difluoro-1-((S)-2-hydroxy-propionyl)-piperidin-4-yloxy]-5-{2-[6-methoxy-5-((R)-3-methyl-4-oxetan-3-yl-piperazin-1-yl)-pyridin-2-ylamino]-pyrimidin-4-yl}-benzonitrile]
< 0.1 µM	< 0.1 µM	COc1nc(Nc2nccc(-c3ccc(OC4CCN(C(=O)[C@@H](C)O)CC4(F)F)c(C#N)c3)n2)ccc1N1CCN(C2COC2)C[C@H]1C (stereo partly drawn) [Example 130, 2-[3,3-Difluoro-1-((R)-2-hydroxy-propionyl)-piperidin-4-yloxy]-5-{2-[6-methoxy-5-((R)-2-methyl-4-oxetan-3-yl-piperazin-1-yl)-pyridin-2-ylamino]-pyrimidin-4-yl}-benzonitrile]
< 0.1 µM	< 0.1 µM	COc1nc(Nc2nccc(-c3ccc(OC4CCN(C(=O)[C@H](C)O)CC4(F)F)c(C#N)c3)n2)ccc1N1CCN(C2COC2)C[C@@H]1C (stereo partly drawn) [Example 131, 2-[3,3-Difluoro-1-((S)-2-hydroxy-propionyl)-piperidin-4-yloxy]-5-{2-[6-methoxy-5-((S)-2-methyl-4-oxetan-3-yl-piperazin-1-yl)-pyridin-2-ylamino]-pyrimidin-4-yl}-benzonitrile]
< 0.1 µM	< 0.1 µM	COc1nc(Nc2nccc(-c3ccc(OC4CCN(C(=O)[C@H](C)O)CC4(F)F)c(C#N)c3)n2)ccc1N1CCN(C2COC2)C[C@H]1C (stereo partly drawn) [Example 132, 2-[3,3-Difluoro-1-((S)-2-hydroxy-propionyl)-piperidin-4-yloxy]-5-{2-[6-methoxy-5-((R)-2-methyl-4-oxetan-3-yl-piperazin-1-yl)-pyridin-2-ylamino]-pyrimidin-4-yl}-benzonitrile]
